{
  "source": "ChEMBL document CHEMBL4145686",
  "about": "“Discovery of a Potent and Selective Steroidal Glucocorticoid Receptor Antagonist (ORIC-101)” (J Med Chem, 2018)",
  "key": {"Androgen receptor [1]": {"molecular_target": "T1, Androgen receptor (Homo sapiens, UniProt P10275)", "T1 sequence (P10275 whole entry)": "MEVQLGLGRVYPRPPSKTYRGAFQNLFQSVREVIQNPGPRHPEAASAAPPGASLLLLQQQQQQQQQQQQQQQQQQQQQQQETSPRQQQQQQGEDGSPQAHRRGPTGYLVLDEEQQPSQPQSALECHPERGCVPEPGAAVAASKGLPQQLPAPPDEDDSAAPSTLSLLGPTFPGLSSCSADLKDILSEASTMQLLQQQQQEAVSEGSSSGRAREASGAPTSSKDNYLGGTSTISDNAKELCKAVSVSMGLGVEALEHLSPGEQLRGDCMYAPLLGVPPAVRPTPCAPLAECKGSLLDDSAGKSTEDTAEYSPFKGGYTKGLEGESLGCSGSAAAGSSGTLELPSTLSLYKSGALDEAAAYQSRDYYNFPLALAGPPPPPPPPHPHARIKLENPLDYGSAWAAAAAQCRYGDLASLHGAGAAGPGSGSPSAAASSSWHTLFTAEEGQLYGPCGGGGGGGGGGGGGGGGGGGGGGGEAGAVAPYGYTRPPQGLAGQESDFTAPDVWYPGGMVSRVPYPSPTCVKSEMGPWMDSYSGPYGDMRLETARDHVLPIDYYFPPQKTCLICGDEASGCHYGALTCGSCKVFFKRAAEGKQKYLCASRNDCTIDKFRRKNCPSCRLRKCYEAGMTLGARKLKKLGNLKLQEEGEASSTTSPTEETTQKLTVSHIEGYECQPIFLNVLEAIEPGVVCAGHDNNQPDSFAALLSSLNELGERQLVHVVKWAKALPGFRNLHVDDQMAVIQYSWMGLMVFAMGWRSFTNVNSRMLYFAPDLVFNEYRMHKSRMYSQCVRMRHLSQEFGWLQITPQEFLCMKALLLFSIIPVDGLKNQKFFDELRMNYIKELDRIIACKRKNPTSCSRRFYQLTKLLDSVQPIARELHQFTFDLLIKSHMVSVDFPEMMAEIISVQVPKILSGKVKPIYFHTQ", "experiment": "Agonist activity at AR in human LNAR cells assessed as increase in PSA gene expression at 100 nM incubated for 24 hrs by RT-qPCR method", "format": "cell-based", "details": "0.1 µM"}, "Androgen receptor [2]": {"molecular_target": "T1, Androgen receptor", "experiment": "Agonist activity at AR in human MDA-MB-453 cells assessed as increase in SEC14L2 gene expression at 111 to 333 nM incubated for 24 hrs by RT-qPCR method", "format": "cell-based", "details": "mda-mb-453, 24 h, 0.333 µM"}, "[3]": {"experiment": "Clearance in rat at 0.5 mg/kg, iv", "format": "ADME, organism-based", "details": "in vivo"}, "[4]": {"experiment": "Oral bioavailability in rat at 5 mg/kg", "format": "ADME, organism-based", "details": "in vivo"}, "[5]": {"experiment": "AUC in rat at 5 mg/kg, po", "format": "ADME, organism-based", "details": "in vivo"}, "[6]": {"experiment": "Clearance in mouse at 0.5 mg/kg, iv", "format": "ADME, organism-based", "details": "in vivo"}, "[7]": {"experiment": "Cmax in mouse at 5 mg/kg, po", "format": "ADME, organism-based", "design": "dose 5 mg/kg, route oral", "details": "in vivo"}, "[8]": {"experiment": "Unbound fraction in human plasma relative to mifepristone", "format": "ADME, cell-free"}, "Cytochrome P450 2C8": {"molecular_target": "T2, Cytochrome P450 2C8 (Homo sapiens, UniProt P10632)", "T2 sequence (P10632 whole entry)": "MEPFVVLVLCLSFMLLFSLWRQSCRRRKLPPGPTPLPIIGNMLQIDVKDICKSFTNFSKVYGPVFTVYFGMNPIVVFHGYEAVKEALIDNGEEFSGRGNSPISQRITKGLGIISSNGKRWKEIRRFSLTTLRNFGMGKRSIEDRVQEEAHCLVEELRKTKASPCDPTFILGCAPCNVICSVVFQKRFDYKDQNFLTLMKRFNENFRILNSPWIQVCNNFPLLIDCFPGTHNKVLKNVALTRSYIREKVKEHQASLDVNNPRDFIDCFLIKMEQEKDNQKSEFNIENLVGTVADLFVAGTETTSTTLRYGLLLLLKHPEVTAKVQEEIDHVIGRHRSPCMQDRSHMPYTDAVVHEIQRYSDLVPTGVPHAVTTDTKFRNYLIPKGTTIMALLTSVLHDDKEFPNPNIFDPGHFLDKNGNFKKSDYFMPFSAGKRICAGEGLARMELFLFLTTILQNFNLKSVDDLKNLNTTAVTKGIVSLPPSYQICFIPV", "experiment": "Inhibition of CYP2C8 (unknown origin) using […] as substrate", "format": "ADME"}, "Progesterone receptor": {"molecular_target": "T3, Progesterone receptor (Homo sapiens, UniProt P06401)", "T3 sequence (P06401 whole entry)": "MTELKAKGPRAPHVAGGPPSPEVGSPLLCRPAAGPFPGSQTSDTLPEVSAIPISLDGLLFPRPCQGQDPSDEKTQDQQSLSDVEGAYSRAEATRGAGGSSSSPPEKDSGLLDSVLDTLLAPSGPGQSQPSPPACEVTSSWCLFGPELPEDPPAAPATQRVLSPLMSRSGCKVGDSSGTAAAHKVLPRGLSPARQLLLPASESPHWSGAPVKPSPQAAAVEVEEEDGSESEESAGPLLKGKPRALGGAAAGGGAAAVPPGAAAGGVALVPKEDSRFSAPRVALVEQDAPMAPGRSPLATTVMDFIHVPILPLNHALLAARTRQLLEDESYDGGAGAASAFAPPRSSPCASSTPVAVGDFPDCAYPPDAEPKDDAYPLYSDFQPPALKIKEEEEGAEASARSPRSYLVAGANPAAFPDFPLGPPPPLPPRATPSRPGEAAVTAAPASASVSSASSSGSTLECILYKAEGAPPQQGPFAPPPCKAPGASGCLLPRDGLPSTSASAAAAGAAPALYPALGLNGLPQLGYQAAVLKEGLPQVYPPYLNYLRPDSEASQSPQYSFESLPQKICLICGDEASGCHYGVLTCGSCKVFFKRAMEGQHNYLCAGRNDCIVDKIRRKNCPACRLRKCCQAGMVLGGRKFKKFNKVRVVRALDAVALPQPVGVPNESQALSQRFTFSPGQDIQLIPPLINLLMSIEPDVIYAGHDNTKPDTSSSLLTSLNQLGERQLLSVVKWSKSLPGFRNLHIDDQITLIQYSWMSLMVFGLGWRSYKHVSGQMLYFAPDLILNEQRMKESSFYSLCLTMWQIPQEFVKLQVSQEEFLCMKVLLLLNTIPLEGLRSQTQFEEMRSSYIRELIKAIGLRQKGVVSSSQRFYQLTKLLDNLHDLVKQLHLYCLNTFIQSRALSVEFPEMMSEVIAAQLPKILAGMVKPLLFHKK", "experiment": "Antagonist activity at human PR expressed in CHO-K1 cells assessed as reduction in progesterone-induced response incubated for 20 hrs by luciferase reporter gene assay", "format": "cell-based"}, "[9]": {"experiment": "Antagonist activity at GR in monkey PBMC assessed as reduction in dexamethasone-induced GILZ gene expression incubated for 6 hrs by RT-qPCR method", "format": "cell-based", "details": "Macaca mulatta"}, "OVCAR-5": {"test_system": "OVCAR-5", "experiment": "Potentiation of carboplatin-induced antitumor activity against human OVCAR5 cells xenografted in chronic cortisol treated nude mouse assessed as reduction in tumor volume at 75 mg/kg, po BID dosed via gavage co-treated with gencitabine at 60 mg/kg dosed every 3 days for 4 doses", "format": "functional, organism-based"}},
  "note": "pIC50: −log10 of the molar value. Calls of active or inactive are those of the source. No cut-off for these calls is given here.",
  "data": [
    {"smiles": "CC(C)N(C)c1ccc([C@H]2C[C@@]3(C)[C@@H](CC[C@@]3(O)C#CC(C)(C)C)[C@@H]3CCC4=CC(=O)CC[C@@H]4[C@H]32)cc1", "values": [
      {"measurement": "Activity", "setting": "Androgen receptor [1]", "value": "Not Active"},
      {"measurement": "Activity", "setting": "Androgen receptor [2]", "value": "Not Active"},
      {"measurement": "clearance", "setting": "[3]", "value": 31.7, "unit": "mL/min/kg"},
      {"measurement": "bioavailability", "setting": "[4]", "value": 24, "unit": "%"},
      {"measurement": "AUC", "setting": "[5]", "value": 635, "unit": "ng·h/mL"},
      {"measurement": "clearance", "setting": "[6]", "value": 27.2, "unit": "mL/min/kg"},
      {"measurement": "Cmax", "setting": "[7]", "value": 274, "unit": "ng/mL"},
      {"measurement": "Ratio", "setting": "[8]", "value": 10},
      {"measurement": "pIC50", "setting": "Cytochrome P450 2C8", "value": "< 5.00"},
      {"measurement": "pIC50", "setting": "Progesterone receptor", "value": 7.68},
      {"measurement": "pIC50", "setting": "[9]", "value": 7.83},
      {"measurement": "Activity", "setting": "OVCAR-5", "value": "Active"}
    ]}
  ]
}
